Measured values published in article PMC11022698, “Precisely Activating cGAS‐STING Pathway with a Novel Peptide‐Based Nanoagonist to Potentiate Immune Checkpoint Blockade Cancer Immunotherapy” (Advanced Science, 2024).

Assays:
[1] = tested on: B16F10 tumor-bearing C57BL/6 mouse model; experiment: Anti-tumor immune responses after i.t. or i.v. injection of AMPs; type: in vivo, C57BL/6 mice; settings: 7.5 mg kg^-1; for DCs maturation (CD80+ CD86+ CD11c+ cells) in lymph nodes: representative flow cytometric plot
Experimental: Next, the B16F10 tumor‐bearing C57BL/6 mouse model was established to investigate whether KLA can initiate efficient anti‐tumor immune responses by activating the cGAS‐STING pathway. The KLA was administrated either through intratumoral (i.t.) or intravenous (i.v.) injection at the dose of 7.5 mg kg^−1, 17BIPHE2 and CGA‐N12 were employed as comparative groups.

[2] = tested on: B16F10 cells; experiment: mtDNA leakage assay, immunofluorescence of dsDNA Marker and anti-TOMM20 (CLSM); type: cell-based; settings: KLA-treated B16F10 cells, n = 3
Experimental: The endosomal escape ability of MAPN was study by analyzing the colocolization of endosomes and KLA after internalizing into cells. Briefly, B16F10 cells were seeded […]
overnight for cell attachment. KLA was labeled with FITC. The cells were incubated […]
H2O2 (100 μM) for 4 h. After 1 h, 3 h, and 6 h incubation, endosomes were stained with LysoTracker probe (red) according to manufacture’s instruction. The cells were then […]
at room temperature, and counterstained with DAPI for the easy observation of cell […]
In Vitro PD-1/PD-L1 Pathway Blockade
MAPN-mediated PD-1/PD-L1 pathway blockade was evaluated with anti-PD-L1 (sc-518027, Santa Cruz, USA) staining. Briefly, B16F10 cells were seeded at a density […]
at room temperature, and then stained with Alexa Fluor 594 (red) labeled anti -PD-L1 […]
B16F10 cells were seeded at a density of 1×10^4 cells per well in 35 mm confocal dish (Ф =15 mm) and incubated overnight for cell attachment. The cells were incubated […]
without H2O2 (100 μM) for 24 h. After washing with PBS, the cells were permeabilized, and incubated with Anti-TOMM20 antibodies (GB111481, Servicebio, China) and dsDNA Marker (sc-58749, Santa Cruz, USA) at 4 °C overnight, and then incubated with secondary antibodies for 2 h and counterstained with DAPI. All the cells were observed using a CLSM (Zeiss, Germany).
The qPCR Quantification of Cytosolic mtDNA

[3] = tested on: cGAS-STING pathway; experiment: Western blot of p-STING, p-TBK1 and p-IRF3 in B16F10 cells; type: cell-based; settings: 40 µM, n = 3
Experimental: (§1) B16F10 cells were seeded in a 12-well plate at a density of 5×10^4 cells per well and […]
(§2) with PBS, the cells were collected by centrifugation. Cytosolic mtDNA was […] using a Cell Mitochondria Isolation Kit (C3601, Beyotime, China), and the DNA was then extracted with a TIANamp Genomic DNA kit (DP304, Tiangen Biotech, China) following the manufacturer’s protocol. The mtDNA D-Loop primers were synthesized by GenePharma Biotech (detailed sequences in Table S3, Supporting Information), and then quantified with Multiplex PCR Kit (PM101, Novoprotein , Shanghai, China) using Quantitative Real-Time PCR Detection System (Bio-Rad, CFX96, USA).
(§3) Caspase-9 and Caspase-3 Activity Assay
(§4) The B16F10 cells were seeded into a 6-well plate at the density of 2×10^5 cells per […]
(§5) cells were rinsed with PBS for three times and then treated with lysis buffer solution in ice bath for 1 h. Cell lysates were centrifuged at 12000 rpm for 5 min at 4 °C, and the supernatant was collected. The supernatant was incubated with caspase-9 or caspase-3 substrate at 37 °C in dark for 12 h. The activities of caspase-9 and caspase-3 were […]
(§6) Evaluation of cGAS-STING Pathway Activation
(§7) Western bolt was employed to evaluate the MAPN-mediated activation of cGAS-STING pathway. Briefly, B16F10 cells were first seeded into 24-well plates at 2×104 […]
(§8) culture medium with or without H2O2 (100 μM). […]

[4] = tested on: B16F10 cells; experiment: qRT-PCR quantification of cytosolic mtDNA; type: cell-based; settings: n = 3
Experimental: as §1, §2, §3, §4, §5, §6, §7, §8

[5] = tested on: cGAS-STING pathway; experiment: Secretion levels of cGAMP and IFN-β in B16F10 cells; type: cell-based; settings: KLA-treated B16F10 cells; n = 3

Substance: KLAKLAK2 [model antimicrobial peptide that promotes mtDNA leakage by changing mitochondrial inner membrane permeability]
- DCs maturation, fold over PBS treatment ([1]; i.t. injection, n = 6): 2.53 fold
- pro-inflammatory cytokines (IFN-β, IFN-γ, TNF-α, IL-6, IL-12) in tumor tissues compared with other groups ([1]; i.t. injection, n = 6): significantly higher levels
- tumor-infiltrating CD8+ T cells, fold over PBS treatment ([1]; i.t. injection, n = 6): 2.36 fold
- DCs maturation (CD80+ CD86+ CD11c+ cells) in lymph nodes ([1]; i.t. injection): 31.4%
- initiation of systemic anti-tumor immune responses ([1]; i.v. injection): weak effect
- DCs maturation (CD80+ CD86+ CD11c+ cells) in lymph nodes ([1]; i.v. injection): 17.9%
- Pearson correlation coefficient of dsDNA and mitochondria (TOMM20) [2]: 0.464
- phosphorylation levels of STING, TBK1, and IRF3 proteins [3]: remarkably increased
- cytosolic mtDNA level, fold over 17BIPHE2-treated cells [4]: 2.41 fold
- cytosolic mtDNA level, fold over CGA-N12-treated cells [4]: 1.87 fold
- IFN-β level, fold over PBS-treated cells [5]: 2.03 fold
- cGAMP level, fold over PBS-treated cells [5]: 1.85 fold
